Read-outs that look alike come from different tables or passages of the source.
Tests used:
Assay type in all cases: cell-based
[1] = tested on: Leishmania mexicana promastigotes; assay: Half-inhibitory concentration on parasites, modified MTT method; settings: for IC50: read-out: IC50 on L. mexicana promastigotes; for Selectivity index: promastigotes compared to human dermic fibroblasts; for growth inhibition on promastigotes: concentrations even higher than 100 μM
Description: Parasites were treated with different concentrations of the synthesized compounds for 48 hours to determine their cytotoxic effect. A dose dependent growth inhibition was observed after this time.
(§1) Promastigotes of Leishmania mexicana Bel 21 strain were cultured at 26°C in Liver Infusion Tryptone (LIT) medium supplemented with 10% fetal bovine serum (Internegocios). Primary cultures of human dermic fibroblasts were performed at 37°C in DMEN medium (Sigma) supplemented with 10% fetal bovine serum in a CO2 incubator at 5% CO2.
(§2) To determine the IC50 in parasites and human fibroblasts the protocol described by was followed. Briefly, a suspension of 2 x 10^6 parasites per mL^-1 or 5 x 10^3 fibroblasts per well were transferred into 96 well plates and different concentrations of the compounds were added. Plates were incubated under the corresponding culture conditions for 48 or 72 hours for L. mexicana or human fibroblasts, respectively. Thereafter, parasites plates were centrifuged prior to the elimination of the supernatant. Cell viability was measured by the modified MTT method, where cells were incubated with the MTT substrate at 0.2 mg x mL^-1 for 4 hours. Colored crystals formed were solubilized in DMSO and absorbance was measured at 570 nm. IC50 was obtained from a dose response curve using the software OriginLab Pro 6.0^©.

human dermic fibroblasts = assay: Half-inhibitory concentration on human fibroblasts, modified MTT method; settings: 72 hours
Description: as §1, §2

[2] = tested on: Leishmania mexicana promastigotes; assay: Mitochondrial membrane potential, Mitotracker Red CMXROS, flow cytometry
Description: In order to determine the energetic state of the mitochondrion after parasites treatment, the compound Mitotraker Red CMXROS was used. As described in the Materials and Methods section, parasites were treated for 6, 16, 24, and 48 hours with each molecule at its IC50, then incubated with Mitotraker Red CMXROS (50 nM) for 30 minutes under culture conditions, and finally analyzed by flow cytometry. […] Additionally, to rule out if Erg itself (the non-azole fraction of the conjugates) could be responsible for this hyperpolarization, parasites were treated with this compound and ΔΨmit was monitored for up to 48 hours by flow cytometry.
Mitotracker CMX Red(Invitrogen) was used to determine the mitochondrial membrane potential (Ψmit) of treated parasites. After 6, 16, 24, and 48 hours treatment, cells were incubated in culture medium with 50 nM Mitotracker CMX Red for 30 minutes at 26°C in the dark. Thereafter, parasites were washed twice with PBS, resuspended in 1 mL buffer, and analyzed using a cytometer (Beckman Coulter). Parasites incubated with valinomycin (500 nM for 30 minutes) were used as positive control. To evaluate the effect of ergosterone coupled molecules on the mitochondrial membrane potential immediately after molecule addition we used the fluorophore rhodamine-123, a mitochondrion-specific cationic dye, which distributes across the inner mitochondrial membranes strictly according to their membrane potential, as described before. Briefly, 1 x 10^7 parasites were washed twice with rhodamine 123 loading buffer (20 mM Tris-HCl, 130 mM KCl, 1 mM MgCl2, and 2 mM KH2PO4) and incubated with 20 μM rhodamine 123 for 45 minutes at 29°C under agitation. Samples were washed twice, resuspended in 500 μL of the same buffer, and transferred to a quartz cuvette. Fluorescence (ex 488 nm and em 530 nm) was registered in a Hitachi F-7000 Spectrofluorimeter. FCCP was used as control for mitochondrial membrane depolarization.

[3] = tested on: Leishmania mexicana promastigotes; assay: Reactive oxygen species (superoxide) determination with dihydroethidium; settings: Erg-GTr/Erg-GTr2 treated cells; data not shown
Description: To evaluate the intracellular level of reactive oxygen species (ROS) after Erg-GTr or Erg-GTr2 treatment, parasites were incubated with dihydroethidium, which become oxidized in the presence of the superoxide anion to form the fluorescent DNA-intercalating agent ethidium, i.e. the emitted fluorescence is proportional to the amount of ROS present. Figure 6A represents a ROS production kinetics analysis performed between 6 and 48 hours post-treatment with both molecules. […] In fact, ROS levels increased already during the first 6 hours of treatment when compared with control cells, which maintained a ROS level lower than 2% throughout the whole kinetic study.
Figure 6 FIGURE 6: Superoxide production after Erg-GTr or Erg-GTr2 treatment. Parasites were treated with 1.4 μM Erg-GTr or 2.3 μM Erg-GTr2 or DMSO (control cells), harvested after different time points and then prepared to measure intracellular superoxide using dyhidroethidium. (A) Superoxide production kinetics in control and treated parasites. […] (B) Representative FACS histograms showing the superoxide-sensitive fluorescence of control and treated promastigotes after 24 hours incubation. The percentages were determined using the WinMDI software. […]
Dihydroethidium (Invitrogen) was used to detect the intracellular level of superoxide anion. […] Thereafter, samples were washed with PBS and immediately analyzed in a Beckman Coulter Cytometer.

[4] = tested on: Leishmania mexicana promastigotes; assay: Alkalinization of acidocalcisomes, acridine orange; settings: Erg-GTr 1.4 μM or Erg-GTr2 2.4 μM; nigericin 2 μM as control
Source text: Leishmania can store Ca^2+ in different compartments like the endoplasmic reticulum, the mitochondrion, and the acidocalcisomes. The major Ca^2+ reservoir is represented by this last organelle. In order to analyze if the [Ca^2+]cyt increase is due to its release from acidocalcisomes, parasites were charged with acridine orange and assayed fluorimetrically. Since acridine orange accumulates in acidic compartments, it allows detection of alkalinization.
To evaluate the effect of ergosterone coupled molecules on the Ca^2+ reservoir organelle acidocalcisome, parasites were stained with acridine orange as described previously. Briefly, 1 x 10^7 parasites were washed twice with loading buffer (20 mM Tris-HCl, 130 mM KCl, 1 mM MgCl2, and 2 mM KH2PO4) and incubated for 5 minutes with acridine orange (5 μM). Samples were washed twice, resuspended in 500 μL of the same buffer, and transferred to a stirred quartz cuvette at 29°C. Fluorescence (ex 488 nm and em 530 nm) was registered in a Hitachi F-7000 Spectrofluorimeter. Nigericin was used as control for acidocalcisome alkalinization.

Row | Compound | IC50 ([1]; Leishmania mexicana, 48 h) [µM] | Selectivity index [1] | growth inhibition on promastigotes ([1]; 48 hours) | other results
1 | CC(C)C(C)C=CC(C)C1CCC2C3=CC=C4CC(O)CCC4(C)C3CCC21C (stereo not shown) [Ergosterol, 10,13-dimethyl-17-(1,4,5-trimethyl-hex-2-enyl)-2,3,4,9,10,11,12,13,14,15,16,17-dodecahydro-1H-cyclopenta[a]phenanthren-3-ol, reference compound] | 33.8 ± 4.7 | 0.8 |  | IC50 (human dermic fibroblasts; Fibroblast): 27 ± 3.5 µM
2 | CC(=O)N[C@@H](CS)C(=O)O [N-acetyl-cysteine, reference compound] |  |  |  | effect of ROS scavenger on mitochondrion hyperpolarization ([2]; Erg-GTr/Erg-GTr2 treated cells, data not shown): did not prevent; effect of ROS scavenger on ROS formation [3]: revert partially
3 | CO[C@@H]1C[C@@H](C[C@H]2CC[C@H](C)[C@H]([C@@H](C)C(=O)O)O2)O[C@]2(O[C@](C)([C@H]3CC[C@@](C)([C@@H]4O[C@@H]([C@H]5O[C@@](O)(CO)[C@H](C)C[C@@H]5C)C[C@@H]4C)O3)C[C@H]2C)[C@@H]1C [nigericin, reference compound] |  |  |  | acridine orange fluorescence (acidocalcisome alkalinization) [4]: further reduction of the acidity
4 | C[N+](C)(C)CC(=O)NN [GT, hydrazinocarbonylmethyl-trimethyl-ammonium chloride, reference compound] | > 200 |  | did not show inhibition | 
5 | NNC(=O)[n+]1ccccc1.[Cl-] [GP, 1-hydrazinocarbonyl-pyridinium chloride, reference compound] | > 200 |  | did not show inhibition | 
6 | [5-hydroxy-10-methyl-3-oxo-17-(1,4,5-trimethyl-hex-2-enyl)-1,2,3,4,5,9,10,11,12,13,14,15,16,17-tetradecahydro-cyclopenta[a]phenanthren-6-ylidene-hydrazinocarbonylmethyl]-trimethyl-ammonium chloride [Erg-GT] |  | 3.5 |  | IC50 ([1]; 48 hours, MTT): 10.4 ± 0.2 µM; IC50 (human dermic fibroblasts): 36.4 µM
7 | CC(C)C(C)C=CC(C)C1CCC2C3=CC(=O)C4(O)CC(=O)CCC4(C)C3CCC21C (stereo not shown) [Ergosterone, 5-hydroxy-10,13-dimethyl-17-(1,4,5-trimethyl-hex-2-enyl)-1,4,5,9,10,11,12,13,14,15,16,17-dodecahydro-2H-cyclopenta[a]phenanthrene-3,6-dione] | 9 ± 0.7 | 3.1 |  | IC50 (human dermic fibroblasts; Fibroblast): 28.3 ± 8.5 µM; effect on inner mitochondrial membrane potential (ΔΨmit) ([2]; treatment up to 48 hours, flow cytometry): No differences
8 | 1-[5-hydroxy-10-methyl-3-oxo-17-(1,4,5-trimethyl-hex-2-enyl)-1,2,3,4,5,9,10,11,12,13,14,15,16,17-tetradecahydro-cyclopenta[a]phenanthren-6-ylidene-hydrazinocarbonyl]-pyridinium chloride [Erg-GP] |  | 1.0 |  | IC50 ([1]; 48 hours, MTT): 42.4 ± 2.8 µM; IC50 (human dermic fibroblasts): 44.5 µM
9 | NNC(=O)n1cnnc1 [GTr, [1,2,4]triazole-4-carboxylic acid hydrazide] | 158 |  | did not show inhibition | 

From PMC5354587, “Ergosterone-coupled Triazol molecules trigger mitochondrial dysfunction, oxidative stress, and acidocalcisomal Ca^2+ release in Leishmania mexicana promastigotes” (Microbial Cell, 2015)
